Experimental data as given in patent publication US6596718B1, “7-Morpholin-4yl-benzothiazole amide derivatives” (Hoffmann-La Roche Inc., priority 2001, dated 2003).

Legend:
[1] = target: T1, human adenosine A1 receptor (Homo sapiens, UniProt P30542); test: [3H]-DPCPX binding assay, human adenosine A1 receptor (SPA, CHO cell membranes); conditions: recombinant human A1 in CHO membranes; [3H]-DPCPX 0.6 nM; Ki by Cheng-Prussoff; read-out: hA1 (pKi) (converted)
T1 construct: expressed in transfected cells; host or cells: CHO cells, Semliki Forest virus expression system; membrane preparation
T1 sequence (P30542 1-326): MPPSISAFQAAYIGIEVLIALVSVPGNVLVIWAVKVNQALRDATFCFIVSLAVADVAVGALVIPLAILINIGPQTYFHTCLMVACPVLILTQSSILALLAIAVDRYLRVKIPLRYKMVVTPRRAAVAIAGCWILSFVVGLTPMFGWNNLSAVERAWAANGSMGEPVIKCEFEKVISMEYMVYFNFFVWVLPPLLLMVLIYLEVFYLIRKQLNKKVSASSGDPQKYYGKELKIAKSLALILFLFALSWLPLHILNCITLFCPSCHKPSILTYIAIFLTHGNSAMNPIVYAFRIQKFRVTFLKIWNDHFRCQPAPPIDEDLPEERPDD
Protocol: Human Adenosine A1 Receptor
(§1) The human adenosine A1 receptor was recombinantly expressed in chinese hamster ovary (CHO) cells using the semlilki forest virus expression system. Cells were harvested, washed twice by centrifugation, homogenized and again washed by centrifugation. The final washed membrane pellet was suspended in a Tris (50 mM) buffer containing 120 mM NaCl, 5 mM KCl, 2 mM CaCl2 and 10 mM MgCl2 (pH 7.4) (buffer A). The [^3H]-DPCPX (([propyl-^3H]8-cyclopentyl-1,3-dipropyxanthine); 0.6 nM) binding assay was carried out in 96-well plates in the presence of 2.5 μg of membrane protein, 0.5 mg of Ysi-poly-l-lysine SPA beads and 0.1 U adenosine deaminase in a final volume of 200 μl of buffer A. Non-specific binding was defined using xanthine amine congener (XAC; 2 μM). Compounds were tested at 10 concentrations from 10 μM-0.3 nM. All assays were conducted in duplicate and repeated at least two times. Assay plates were incubated for 1 hour at room temperature before centrifugation and then bound ligand determined using a Packard Topcount scintillation counter. IC50, the concentration where 50% of the […] binding is displaced, values were calculated using a non-linear curve fitting program and ki values calculated using the Cheng-Prussoff equation.

[2] = target: T2, human adenosine A2A receptor (Homo sapiens, UniProt P29274); test: [3H]-SCH-58261 binding assay, human adenosine A2A receptor (SPA, CHO cell membranes); conditions: recombinant human A2A in CHO membranes; [3H]-SCH-58261 1 nM; Ki by Cheng-Prussoff; read-out: hA2 (pKi) (converted)
T2 construct: expressed in transfected cells; host or cells: CHO cells, Semliki Forest virus expression system; membrane preparation
Protocol: Human Adenosine A2A Receptor
as §1, with “adenosine A2A” for “adenosine A1”, “(buffer A)” for “(buffer A).”, “The [^3H]-SCH-58261 (Dionisotti et al., 1997, Br J Pharmacol 121, 353; 1” for “The [^3H]-DPCPX (([propyl-^3H]8-cyclopentyl-1,3-dipropyxanthine); 0.6”, “counter. IC50 values,” for “counter. IC50,”, “displaced,” for “displaced, values”, “and Ki” for “and ki”

T2 sequence (P29274 whole entry): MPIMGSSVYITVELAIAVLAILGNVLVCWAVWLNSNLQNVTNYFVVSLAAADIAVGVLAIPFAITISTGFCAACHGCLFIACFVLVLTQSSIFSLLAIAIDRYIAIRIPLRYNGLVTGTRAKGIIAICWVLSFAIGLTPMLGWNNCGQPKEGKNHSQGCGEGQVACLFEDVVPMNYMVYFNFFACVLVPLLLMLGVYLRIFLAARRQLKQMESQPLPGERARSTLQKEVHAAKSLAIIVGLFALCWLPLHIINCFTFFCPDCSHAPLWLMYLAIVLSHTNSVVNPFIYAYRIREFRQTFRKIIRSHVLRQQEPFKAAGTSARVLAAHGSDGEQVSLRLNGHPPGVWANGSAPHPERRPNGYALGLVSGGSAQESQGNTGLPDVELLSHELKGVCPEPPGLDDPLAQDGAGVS

Compound | Ki [1] [nM] | Ki [2] [nM] | melting point [°C]
COc1ccc(N2CCOCC2)c2sc(C(=O)NCC(=O)c3sccc3Cl)nc12 [Example 73, 4-Methoxy-7-morpholin-4-yl-benzothiazole-2-carboxylic acid [2-(3-chloro-thiophen-2-yl)-2-oxo-ethyl]-amide] | 1580 |  | 125 to 127
COc1ccc(N2CCOCC2)c2sc(C(=O)NC(C)c3nc(C)cs3)nc12 (stereo not drawn) [Example 77, 4-Methoxy-7-morpholin-4-yl-benzothiazole-2-carboxylic acid [1-(4-methyl-thiazol-2-yl)-ethyl]-amide] | 501 | 5.01 | 175 to 176
COc1ccc(N2CCOCC2)c2sc(C(=O)NCc3ccccn3)nc12 [Example 13, 4-Methoxy-7-morpholin-4-yl-benzothiazole-2-carboxylic acid (pyridin-2-ylmethyl)-amide] | 6310 |  | 181 to 182
COc1ccc(N2CCOCC2)c2sc(C(=O)NCc3ccccc3Cl)nc12 [Example 16, 4-Methoxy-7-morpholin-4-yl-benzothiazole-2-carboxylic acid 2-chloro-benzylamide] | 3980 |  | 114 to 116
COc1ccc(N2CCOCC2)c2sc(C(=O)Nc3ccccc3)nc12 [Example 4, 4-Methoxy-7-morpholin-4-yl-benzothiazole-2-carboxylic acid phenylamide] |  |  | 190 to 191
COc1ccc(N2CCOCC2)c2sc(C(=O)NCC(=O)c3sc4ccccc4c3C)nc12 [Example 76, 4-Methoxy-7-morpholin-4-yl-benzothiazole-2-carboxylic acid [2-(3-methyl-benzo[b]thiophen-2-yl)-2-oxo-ethyl]-amide] |  |  | 185 to 187
COc1ccc(C(=O)CNC(=O)c2nc3c(OC)ccc(N4CCOCC4)c3s2)cc1 [Example 66, 4-Methoxy-7-morpholin-4-yl-benzothiazole-2-carboxylic acid [2-(4-methoxy-phenyl)-2-oxo-ethyl]-amide] |  |  | 176 to 178
COc1ccc(N2CCOCC2)c2sc(C(=O)Nc3ccc(C)nc3)nc12 [Example 82, 4-Methoxy-7-morpholin-4-yl-benzothiazole-2-carboxylic acid (6-methyl-pyridin-3-yl)-amide] |  |  | 145 to 147
COc1ccc(N2CCOCC2)c2sc(C(=O)NCc3csc4ccccc34)nc12 [Example 69, 4-Methoxy-7-morpholin-4-yl-benzothiazole-2-carboxylic acid (benzo[b]thiophen-3-ylmethyl)-amide] |  |  | 187 to 189
COc1ccc(N2CCOCC2)c2sc(C(=O)NC(C)c3csc(C)n3)nc12 (stereo not drawn) [Example 80, 4-Methoxy-7-morpholin-4-yl-benzothiazole-2-carboxylic acid [1-(2-methyl-thiazol-4-yl)-ethyl]-amide] |  |  | 174 to 175
COc1ccc(N2CCOCC2)c2sc(C(=O)NCC(=O)c3ccccc3)nc12 [Example 39, 4-Methoxy-7-morpholin-4-yl-benzothiazole-2-carboxylic acid (2-oxo-2-phenyl-ethyl)-amide] |  |  | 197 to 200

Now from value to compound:

Ki [1] [nM] | Ki [2] [nM] | melting point [°C] | Compound
1000 | 20 | 141 to 143 | COc1ccc(N2CCOCC2)c2sc(C(=O)NCCc3ccccc3Cl)nc12 [Example 63, 4-Methoxy-7-morpholin-4-yl-benzothiazole-2-carboxylic acid [2-(2-chloro-phenyl)-ethyl]-amide]
1260 | 3.98 | 120 to 121 | COc1ccc(N2CCOCC2)c2sc(C(=O)NCCc3cccs3)nc12 [Example 22, 4-Methoxy-7-morpholin-4-yl-benzothiazole-2-carboxylic acid (2-thiophen-2-yl-ethyl)-amide]
2510 | 20 | 148 to 150 | COc1ccc(N2CCOCC2)c2sc(C(=O)NCc3cccc(Cl)c3)nc12 [Example 15, 4-Methoxy-7-morpholin-4-yl-benzothiazole-2-carboxylic acid 3-chloro-benzylamide]
1580 |  | 158 to 160 | COc1ccccc1CCNC(=O)c1nc2c(OC)ccc(N3CCOCC3)c2s1 [Example 49, 4-Methoxy-7-morpholin-4-yl-benzothiazole-2-carboxylic acid [2-(2-methoxy-phenyl)-ethyl]-amide]
1260 | 25.1 | 99 to 101 | COc1cccc(CCNC(=O)c2nc3c(OC)ccc(N4CCOCC4)c3s2)c1 [Example 64, 4-Methoxy-7-morpholin-4-yl-benzothiazole-2-carboxylic acid [2-(3-methoxy-phenyl)-ethyl] amide]
2000 |  | 153 to 154 | COc1ccc(N2CCOCC2)c2sc(C(=O)NCCc3ccc(Cl)cc3)nc12 [Example 62, 4-Methoxy-7-morpholin-4-yl-benzothiazole-2-carboxylic acid [2-(4-chloro-phenyl)-ethyl]-amide]
6310 | 25.1 | 160 to 163 | COc1ccc(N2CCOCC2)c2sc(C(=O)NCCc3cccnc3)nc12 [Example 55, 4-Methoxy-7-morpholin-4-yl-benzothiazole-2-carboxylic acid (2-pyridin-3-yl-ethyl)-amide]
1260 | 25.1 | 119 to 121 | COc1ccc(N2CCOCC2)c2sc(C(=O)NCCc3cccc(C)c3)nc12 [Example 71, 4-Methoxy-7-morpholin-4-yl-benzothiazole-2-carboxylic acid (2-m-tolyl-ethyl)-amide]
6310 |  | 150 to 153 | COc1ccc(N2CCOCC2)c2sc(C(=O)NCCc3ccc(F)cc3)nc12 [Example 59, 4-Methoxy-7-morpholin-4-yl-benzothiazole-2-carboxylic acid [2-(4-fluoro-phenyl)-ethyl]-amide]
1580 | 20 | 120 to 122 | COc1ccc(N2CCOCC2)c2sc(C(=O)NCCc3cccc(F)c3)nc12 [Example 57, 4-Methoxy-7-morpholin-4-yl-benzothiazole-2-carboxylic acid [2-(3-fluoro-phenyl)-ethyl]-amide]
1260 | 6.31 | 137 to 139 | COc1ccc(N2CCOCC2)c2sc(C(=O)NCCc3ccsc3)nc12 [Example 54, 4-Methoxy-7-morpholin-4-yl-benzothiazole-2-carboxylic acid (2-thiophen-3-yl-ethyl)-amide]
1260 | 20 | 50 to 51 | COc1ccc(N2CCOCC2)c2sc(C(=O)NCCc3ccccc3)nc12 [Example 6, 4-Methoxy-7-morpholin-4-yl benzothiazole-2-carboxylic acid phenethyl-amide]
 |  | 165 to 166 | COc1ccc(N2CCOCC2)c2sc(C(=O)NCCc3cccc(NC(C)=O)c3)nc12 [Example 50, 4-Methoxy-7-morpholin-4-yl-benzothiazole-2-carboxylic acid [2-(3-acetylamino-phenyl)-ethyl]-amide]
 |  | 136 to 138 | COc1ccc(N2CCOCC2)c2sc(C(=O)NCCc3ccc(C)cc3)nc12 [Example 61, 4-Methoxy-7-morpholin-4-yl-benzothiazole-2-carboxylic acid (2-p-tolyl-ethyl)-amide]
